Columns and labels:
[1] = target: Dual specificity protein kinase CLK4 (Homo sapiens) (UniProt Q9HAZ1); conditions: Compound concentration 1000.0 nM
D(3) dopamine receptor = D(3) dopamine receptor (Homo sapiens, UniProt P35462); conditions: Compound concentration 10.0 uM
[2] = tested on: Receptor-type tyrosine-protein kinase FLT3 (Homo sapiens), P36888 [R834Q]; conditions: Compound concentration 1000.0 nM
[3] = target: T1, Muscarinic acetylcholine receptor M1 (Homo sapiens, UniProt P11229); experiment: GPCRScan assay: inhibition of M1; parameters: radioligand conc. used [nm] 0.3 – 1.2, parental cells stable CHO
T1 sequence (P11229 whole entry): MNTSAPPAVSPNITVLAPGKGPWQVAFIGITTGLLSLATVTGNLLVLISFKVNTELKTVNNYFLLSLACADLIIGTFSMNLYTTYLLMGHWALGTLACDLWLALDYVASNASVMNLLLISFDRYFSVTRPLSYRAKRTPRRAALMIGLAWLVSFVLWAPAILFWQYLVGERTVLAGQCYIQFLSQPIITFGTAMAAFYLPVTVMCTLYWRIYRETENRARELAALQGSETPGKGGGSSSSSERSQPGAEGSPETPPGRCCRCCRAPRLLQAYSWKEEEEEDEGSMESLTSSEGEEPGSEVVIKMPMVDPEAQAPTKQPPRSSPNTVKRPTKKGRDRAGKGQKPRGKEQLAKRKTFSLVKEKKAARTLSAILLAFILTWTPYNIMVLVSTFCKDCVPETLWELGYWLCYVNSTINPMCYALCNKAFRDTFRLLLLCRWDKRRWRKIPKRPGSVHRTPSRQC

[4] = target: Vascular endothelial growth factor receptor 2 (Homo sapiens) (UniProt P35968); conditions: Compound concentration 1000.0 nM
[5] = target: Ephrin type-A receptor 8 (Homo sapiens) (UniProt P29322); conditions: Compound concentration 1000.0 nM
[6] = target: Serine/threonine-protein kinase D3 (Homo sapiens) (UniProt O94806); conditions: Compound concentration 1000.0 nM
[7] = target: Mitogen-activated protein kinase kinase kinase 19 (Homo sapiens) (UniProt Q56UN5); conditions: Compound concentration 1000.0 nM
[8] = target: T2, 5-hydroxytryptamine receptor 1A (Homo sapiens, UniProt P08908); experiment: GPCRScan assay: inhibition of 5-HT1A; parameters: radioligand conc. used [nm] 0.5 – 1.0, parental cells stable CHO
T2 sequence (P08908 whole entry): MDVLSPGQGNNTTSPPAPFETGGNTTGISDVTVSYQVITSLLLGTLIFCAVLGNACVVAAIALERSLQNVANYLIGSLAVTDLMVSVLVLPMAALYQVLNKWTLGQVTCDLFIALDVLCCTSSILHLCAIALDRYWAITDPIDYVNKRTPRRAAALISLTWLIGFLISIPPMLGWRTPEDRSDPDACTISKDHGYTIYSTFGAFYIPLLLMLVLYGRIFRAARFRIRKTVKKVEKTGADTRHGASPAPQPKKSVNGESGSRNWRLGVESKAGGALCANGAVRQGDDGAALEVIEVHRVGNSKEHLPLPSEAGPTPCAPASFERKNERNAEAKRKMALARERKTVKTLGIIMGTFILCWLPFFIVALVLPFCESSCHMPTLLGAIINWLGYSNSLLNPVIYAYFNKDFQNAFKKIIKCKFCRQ

[9] = target: Casein kinase I isoform delta (Homo sapiens) (UniProt P48730); conditions: Compound concentration 1000.0 nM
[10] = target: Tyrosine-protein kinase ABL2 (Homo sapiens) (UniProt P42684); conditions: Compound concentration 1000.0 nM
[11] = target: cAMP-dependent protein kinase catalytic subunit PRKX (Homo sapiens) (UniProt P51817); conditions: Compound concentration 1000.0 nM
[12] = target: Serine/threonine-protein kinase WNK3 (Homo sapiens) (UniProt Q9BYP7); conditions: Compound concentration 1000.0 nM
[13] = target: Mitogen-activated protein kinase kinase kinase kinase 4 (Homo sapiens) (UniProt O95819); conditions: Compound concentration 1000.0 nM
[14] = target: Serine/threonine-protein kinase ICK (Homo sapiens) (UniProt Q9UPZ9); conditions: Compound concentration 1000.0 nM
[15] = target: High affinity nerve growth factor receptor (Homo sapiens) (UniProt P04629); conditions: Compound concentration 1000.0 nM
[16] = target: Tyrosine-protein kinase ABL1 (Homo sapiens) (UniProt P00519); conditions: Compound concentration 1000.0 nM
[17] = target: T3, 5-hydroxytryptamine receptor 7 (Homo sapiens, UniProt P34969); conditions: Compound concentration 10.0 uM
[18] = target: Serine/threonine-protein kinase MARK2 (Homo sapiens) (UniProt Q7KZI7); conditions: Compound concentration 1000.0 nM
[19] = target: Proto-oncogene tyrosine-protein kinase Src (Homo sapiens) (UniProt P12931); conditions: Compound concentration 1000.0 nM
[20] = target: Serine/threonine-protein kinase SIK3 (Homo sapiens) (UniProt Q9Y2K2); conditions: Compound concentration 1000.0 nM
[21] = target: T3, 5-hydroxytryptamine receptor 7; experiment: GPCRScan assay: inhibition of 5-HT7A; parameters: radioligand conc. used [nm] 5.0 – 6.0, parental cells Stable HEK
[22] = target: Mitogen-activated protein kinase kinase kinase 15 (Homo sapiens) (UniProt Q6ZN16); conditions: Compound concentration 1000.0 nM
[23] = target: Serine/threonine-protein kinase PLK1 (Homo sapiens) (UniProt P53350); conditions: Compound concentration 1000.0 nM
[24] = target: Calcium/calmodulin-dependent protein kinase type 1D (Homo sapiens) (UniProt Q8IU85); conditions: Compound concentration 1000.0 nM
[25] = target: Myosin light chain kinase, smooth muscle (Homo sapiens) (UniProt Q15746); conditions: Compound concentration 1000.0 nM
[26] = target: Protein kinase C iota type (Homo sapiens) (UniProt P41743); conditions: Compound concentration 1000.0 nM
[27] = target: Tyrosine-protein kinase receptor TYRO3 (Homo sapiens) (UniProt Q06418); conditions: Compound concentration 1000.0 nM
[28] = target: Macrophage colony-stimulating factor 1 receptor (Homo sapiens) (UniProt P07333); conditions: Compound concentration 1000.0 nM
[29] = target: Dual specificity protein kinase CLK3 (Homo sapiens) (UniProt P49761); conditions: Compound concentration 1000.0 nM
[30] = tested on: Proto-oncogene tyrosine-protein kinase receptor Ret (Homo sapiens), P07949 [V804L]; conditions: Compound concentration 1000.0 nM
[31] = target: Serine/threonine-protein kinase MARK1 (Homo sapiens) (UniProt Q9P0L2); conditions: Compound concentration 1000.0 nM
[32] = target: Tyrosine-protein kinase ZAP-70 (Homo sapiens) (UniProt P43403); conditions: Compound concentration 1000.0 nM

T3 sequence (P34969 whole entry): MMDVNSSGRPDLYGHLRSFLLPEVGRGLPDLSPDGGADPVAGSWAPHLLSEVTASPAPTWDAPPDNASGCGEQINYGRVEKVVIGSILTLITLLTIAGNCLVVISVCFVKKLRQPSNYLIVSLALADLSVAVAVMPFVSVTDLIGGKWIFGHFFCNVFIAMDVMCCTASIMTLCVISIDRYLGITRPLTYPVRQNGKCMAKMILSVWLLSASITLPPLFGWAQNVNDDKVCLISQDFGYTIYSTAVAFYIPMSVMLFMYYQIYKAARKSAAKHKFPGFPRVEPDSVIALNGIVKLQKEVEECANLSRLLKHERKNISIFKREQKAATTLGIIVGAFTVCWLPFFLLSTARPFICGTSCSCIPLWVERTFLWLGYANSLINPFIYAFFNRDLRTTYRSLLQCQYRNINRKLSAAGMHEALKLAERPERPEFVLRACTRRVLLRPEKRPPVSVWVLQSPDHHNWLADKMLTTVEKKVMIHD
Proto-oncogene tyrosine-protein kinase Src (Homo sapiens), sequence (P12931 2-536 limits assumed): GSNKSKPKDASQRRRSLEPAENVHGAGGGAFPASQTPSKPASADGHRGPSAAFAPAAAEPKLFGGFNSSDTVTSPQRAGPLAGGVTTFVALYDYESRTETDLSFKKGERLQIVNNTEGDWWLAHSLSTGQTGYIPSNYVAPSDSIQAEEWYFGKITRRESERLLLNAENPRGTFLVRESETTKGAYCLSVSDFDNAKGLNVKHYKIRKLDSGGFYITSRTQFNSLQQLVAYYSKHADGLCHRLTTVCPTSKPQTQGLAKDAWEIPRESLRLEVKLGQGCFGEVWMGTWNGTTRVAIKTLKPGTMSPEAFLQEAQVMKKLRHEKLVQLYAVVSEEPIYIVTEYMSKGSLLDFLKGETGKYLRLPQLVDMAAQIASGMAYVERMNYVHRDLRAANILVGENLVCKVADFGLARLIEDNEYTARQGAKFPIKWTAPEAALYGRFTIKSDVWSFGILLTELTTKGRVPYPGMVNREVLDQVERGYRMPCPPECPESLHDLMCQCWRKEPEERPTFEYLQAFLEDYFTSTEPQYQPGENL
Calcium/calmodulin-dependent protein kinase type 1D (Homo sapiens), sequence (Q8IU85 whole entry, looked up): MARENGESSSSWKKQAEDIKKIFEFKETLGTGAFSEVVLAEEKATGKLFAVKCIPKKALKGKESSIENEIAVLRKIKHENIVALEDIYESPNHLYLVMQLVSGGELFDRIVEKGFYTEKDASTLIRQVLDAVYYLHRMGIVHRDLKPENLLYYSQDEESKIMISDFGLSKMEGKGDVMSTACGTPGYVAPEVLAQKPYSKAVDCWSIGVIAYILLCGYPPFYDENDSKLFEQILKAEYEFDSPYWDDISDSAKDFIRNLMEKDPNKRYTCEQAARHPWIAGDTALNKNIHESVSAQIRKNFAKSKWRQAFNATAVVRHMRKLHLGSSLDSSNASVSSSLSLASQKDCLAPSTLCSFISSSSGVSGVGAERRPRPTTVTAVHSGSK
Casein kinase I isoform delta (Homo sapiens), sequence (P48730 whole entry, looked up, canonical isoform): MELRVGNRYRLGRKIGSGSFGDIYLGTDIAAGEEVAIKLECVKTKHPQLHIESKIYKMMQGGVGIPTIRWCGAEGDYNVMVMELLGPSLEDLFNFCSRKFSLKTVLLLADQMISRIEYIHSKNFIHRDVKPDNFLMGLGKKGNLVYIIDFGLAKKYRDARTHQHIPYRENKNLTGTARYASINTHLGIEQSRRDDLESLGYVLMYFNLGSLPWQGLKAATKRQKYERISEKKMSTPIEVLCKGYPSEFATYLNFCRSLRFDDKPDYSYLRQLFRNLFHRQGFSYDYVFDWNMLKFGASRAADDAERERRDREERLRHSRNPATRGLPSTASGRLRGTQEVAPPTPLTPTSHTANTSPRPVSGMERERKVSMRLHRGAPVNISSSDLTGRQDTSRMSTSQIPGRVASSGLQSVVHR
Tyrosine-protein kinase receptor TYRO3 (Homo sapiens), sequence (Q06418 whole entry): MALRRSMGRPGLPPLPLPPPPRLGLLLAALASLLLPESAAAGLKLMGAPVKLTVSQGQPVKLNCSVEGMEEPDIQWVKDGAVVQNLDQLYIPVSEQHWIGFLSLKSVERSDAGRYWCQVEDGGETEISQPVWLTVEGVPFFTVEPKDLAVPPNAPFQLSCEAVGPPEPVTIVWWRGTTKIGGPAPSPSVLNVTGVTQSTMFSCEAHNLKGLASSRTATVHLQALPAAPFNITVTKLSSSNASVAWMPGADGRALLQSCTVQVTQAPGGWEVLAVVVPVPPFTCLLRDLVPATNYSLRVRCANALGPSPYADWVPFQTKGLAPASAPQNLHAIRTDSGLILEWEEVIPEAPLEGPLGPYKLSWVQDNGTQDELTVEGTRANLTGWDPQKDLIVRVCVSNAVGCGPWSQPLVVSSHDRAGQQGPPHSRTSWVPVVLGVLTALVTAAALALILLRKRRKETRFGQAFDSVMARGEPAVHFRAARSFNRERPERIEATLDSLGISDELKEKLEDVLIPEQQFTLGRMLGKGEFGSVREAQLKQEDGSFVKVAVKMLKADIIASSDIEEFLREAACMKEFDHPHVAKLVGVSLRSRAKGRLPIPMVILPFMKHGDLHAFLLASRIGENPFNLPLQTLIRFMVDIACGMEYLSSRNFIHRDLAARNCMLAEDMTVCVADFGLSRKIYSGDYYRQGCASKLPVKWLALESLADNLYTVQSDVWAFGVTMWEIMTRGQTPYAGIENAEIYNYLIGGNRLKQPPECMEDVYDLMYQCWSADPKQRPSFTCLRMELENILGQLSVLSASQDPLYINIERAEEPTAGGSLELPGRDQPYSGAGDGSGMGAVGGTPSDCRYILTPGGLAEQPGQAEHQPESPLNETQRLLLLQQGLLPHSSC
Serine/threonine-protein kinase WNK3 (Homo sapiens), sequence (Q9BYP7 whole entry): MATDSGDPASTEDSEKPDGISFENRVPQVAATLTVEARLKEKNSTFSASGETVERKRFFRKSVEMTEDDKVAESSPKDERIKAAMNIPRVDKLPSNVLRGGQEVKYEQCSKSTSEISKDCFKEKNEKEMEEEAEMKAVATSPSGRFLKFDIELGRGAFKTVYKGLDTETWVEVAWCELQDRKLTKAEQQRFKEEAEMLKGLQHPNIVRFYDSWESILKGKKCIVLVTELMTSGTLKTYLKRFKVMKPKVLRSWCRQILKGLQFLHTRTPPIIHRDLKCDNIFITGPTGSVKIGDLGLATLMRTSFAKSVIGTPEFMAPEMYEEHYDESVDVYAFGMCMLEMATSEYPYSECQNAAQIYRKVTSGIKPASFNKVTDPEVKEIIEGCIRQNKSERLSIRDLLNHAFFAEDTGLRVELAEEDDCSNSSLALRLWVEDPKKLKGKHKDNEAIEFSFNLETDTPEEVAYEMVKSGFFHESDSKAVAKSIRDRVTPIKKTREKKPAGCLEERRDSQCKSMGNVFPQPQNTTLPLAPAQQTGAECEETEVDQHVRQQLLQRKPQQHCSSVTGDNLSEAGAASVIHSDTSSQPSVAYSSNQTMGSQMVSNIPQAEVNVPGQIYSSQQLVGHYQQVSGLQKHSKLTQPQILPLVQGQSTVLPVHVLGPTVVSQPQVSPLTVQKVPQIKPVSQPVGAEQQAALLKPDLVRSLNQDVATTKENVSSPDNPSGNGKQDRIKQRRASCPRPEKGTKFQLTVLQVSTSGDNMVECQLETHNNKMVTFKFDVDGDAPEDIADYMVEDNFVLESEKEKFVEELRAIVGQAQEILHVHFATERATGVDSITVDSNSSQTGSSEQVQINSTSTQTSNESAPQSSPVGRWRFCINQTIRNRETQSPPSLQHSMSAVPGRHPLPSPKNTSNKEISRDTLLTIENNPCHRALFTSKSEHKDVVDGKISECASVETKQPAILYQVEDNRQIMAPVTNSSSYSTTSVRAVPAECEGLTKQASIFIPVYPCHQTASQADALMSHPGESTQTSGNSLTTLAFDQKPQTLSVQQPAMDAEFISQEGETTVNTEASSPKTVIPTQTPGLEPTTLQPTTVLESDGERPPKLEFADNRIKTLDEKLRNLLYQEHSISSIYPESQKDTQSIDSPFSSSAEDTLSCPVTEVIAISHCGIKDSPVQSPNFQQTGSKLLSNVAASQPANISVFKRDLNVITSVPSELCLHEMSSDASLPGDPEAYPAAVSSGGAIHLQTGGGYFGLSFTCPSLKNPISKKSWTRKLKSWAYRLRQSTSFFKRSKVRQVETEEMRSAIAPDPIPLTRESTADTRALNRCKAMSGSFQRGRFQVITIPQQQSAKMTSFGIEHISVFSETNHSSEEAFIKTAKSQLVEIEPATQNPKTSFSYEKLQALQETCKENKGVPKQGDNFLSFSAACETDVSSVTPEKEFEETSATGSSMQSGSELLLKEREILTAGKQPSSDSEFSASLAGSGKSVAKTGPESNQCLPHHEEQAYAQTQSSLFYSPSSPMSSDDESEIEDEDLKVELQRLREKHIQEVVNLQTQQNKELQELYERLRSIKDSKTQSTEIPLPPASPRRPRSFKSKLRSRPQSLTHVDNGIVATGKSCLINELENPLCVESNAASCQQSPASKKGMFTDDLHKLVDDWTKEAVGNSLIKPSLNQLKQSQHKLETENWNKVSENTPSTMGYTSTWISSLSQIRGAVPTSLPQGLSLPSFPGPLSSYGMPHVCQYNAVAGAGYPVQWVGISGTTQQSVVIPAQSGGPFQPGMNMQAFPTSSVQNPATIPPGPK
Dual specificity protein kinase CLK3 (Homo sapiens), sequence (P49761 whole entry, looked up): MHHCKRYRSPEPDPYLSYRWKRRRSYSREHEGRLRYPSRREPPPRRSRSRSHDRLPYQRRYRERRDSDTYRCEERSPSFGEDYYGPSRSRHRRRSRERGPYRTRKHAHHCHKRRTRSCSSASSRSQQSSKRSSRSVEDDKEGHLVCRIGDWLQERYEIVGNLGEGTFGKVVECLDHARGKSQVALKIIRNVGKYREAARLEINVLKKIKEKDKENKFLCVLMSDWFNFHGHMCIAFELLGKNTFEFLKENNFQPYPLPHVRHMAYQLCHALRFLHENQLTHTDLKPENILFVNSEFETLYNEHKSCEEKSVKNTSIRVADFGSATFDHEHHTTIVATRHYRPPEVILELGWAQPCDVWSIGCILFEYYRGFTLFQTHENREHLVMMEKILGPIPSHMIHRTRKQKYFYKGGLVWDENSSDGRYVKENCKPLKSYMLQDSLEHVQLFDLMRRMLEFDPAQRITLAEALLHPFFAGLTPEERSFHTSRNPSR

Row | SMILES | residual activity [1] [%] | inhibition (D(3) dopamine receptor) [%] | residual activity [2] [%] | Ki ([3]; read-out: Ki) [nM] | Ki ([3]; read-out: pKi (converted)) [nM] | residual activity [4] [%] | residual activity [5] [%] | residual activity [6] [%] | residual activity [7] [%] | Ki ([8]; read-out: Ki) [nM] | residual activity [9] [%] | residual activity [10] [%] | residual activity [11] [%] | residual activity [12] [%] | residual activity [13] [%] | residual activity [14] [%] | residual activity [15] [%] | residual activity [16] [%] | inhibition [17] [%] | residual activity [18] [%] | further results
1 | CNCc1ccccc1-c1csc([C@H](C)Nc2nc(C)nc3cc(OC)c(OC)cc23)c1 [BAY-294] | 100 | 64.8 | 82 | 314 | 224 | 91 | 100 | 100 | 78 | 391 | 95 | 100 | 76 | 98 | 97 | 86 | 87 | 87 | 70.7 | 100 | residual activity [19]: 100%; residual activity [20]: 78%; Ki ([21]; read-out: Ki): 700 nM; residual activity [22]: 77%; residual activity [23]: 85%; residual activity [24]: 100%; residual activity [25]: 94%; residual activity [26]: 87%; residual activity [27]: 100%; residual activity [28]: 100%; residual activity [29]: 100%; residual activity [30]: 99%; residual activity [31]: 100%; residual activity [32]: 100%
2 | CNCc1ccccc1-c1csc([C@@H](C)Nc2nc(C)nc3cc(OC)c(OC)cc23)c1 [BAY-293] | 100 | 56.8 | 79 | 238 | 209 | 93 | 100 | 92 | 71 | 3630 | 82 | 100 | 67 | 100 | 100 | 82 | 87 | 80 | 76.2 | 99 | Ki ([8]; read-out: pKi (converted)): 3350 nM; residual activity [19]: 100%; residual activity [20]: 90%; Ki ([21]; read-out: Ki): 1730 nM; Ki ([21]; read-out: pKi (converted)): 1700 nM; residual activity [22]: 60%; residual activity [23]: 80%; residual activity [24]: 100%; residual activity [25]: 84%; residual activity [26]: 100%; residual activity [27]: 89%; residual activity [28]: 100%; residual activity [29]: 100%; residual activity [30]: 73%; residual activity [31]: 100%; residual activity [32]: 87%
